We go through two molecules from paper PMC8148049, “Fluorogenic Trp(redBODIPY) cyclopeptide targeting keratin 1 for imaging of aggressive carcinomas” (Chemical Science, 2019).

Values joined by “and” are separate entries in the source; they are usually repeats but may differ in a detail not shown here. Equal values may be shown once. *1 amine or outer side, *2 acyl side, *3 side chain or, on linkers, in order; H or OH if unused. Where a SMILES comes first, the peptide text is derived from it. [ ]: non-standard residue; d: D form. X1 = CC1=CC(C)=[N+]2C1=C(c1cccc(-c3[nH]c4ccccc4c3C[C@H](N[*:1])C(=O)[*:2])c1)c1ccc(-c3ccc(C)s3)n1[B-]2(F)F; Nle = CCCC[C@H](N)C(=O)O

Data set [1] relates to Protease XIV (from Streptomyces Griseus). In words: Protease stability assay (protease cocktail, HPLC-MS monitoring). The format is in vitro ADME. The conditions noted are these: Protease XIV 5 μg mL-1 in PBS-citrate buffer pH 7.1, 37 °C, peptide 500 µM (from 5 mM DMSO stock), HPLC-MS with detection at 280 nm. The protocol:
Given that proteases are abundant enzymes at tumour sites, we also investigated the potential degradation of the cyclopeptides 2 (unlabelled) and 8 [Trp(redBODIPY)-labelled] when subjected to strong proteolytic environments. We incubated both peptides with a commercially available protease cocktail at 37 °C and recorded their chemical stability by HPLC-MS over time. […] We also observed that the incorporation of the amino acid Trp(redBODIPY) into the structure of the cyclopeptide 2 slightly augmented its resistance to proteases, likely due to the inherent properties of unnatural amino acids.
5. Experimental Protocols for Biological Assays […]
(§1) Protease stability assays
(§2) The chemical stability of the peptides was assessed in the presence of Protease XIV (from Streptomyces Griseus) in PBS-citrate buffer (pH 7.1) at 37 °C. First, a stock of 5 μg mL-1 of the protease cocktail in the buffer was prepared. Initially, a concentrated 1 mg mL−1 solution was obtained by weighing 1.1 mg of the protease and dissolving it in 1.1 mL of buffer, and afterwards diluting it down to the desired 5 μg mL-1 stock. Then, 5 µL of the peptides (5 mM in DMSO) were diluted with 45 µL of the protease cocktail to obtain a final peptide concentration of 500 µM. Peptides were vortexed, covered in aluminium foil and shaken at 37°C for 2 h or 24 h. Aliquots (25 µL) were taken, proteins were precipitated by microcentrifugation at 4°C, and supernatants were collected for HPLC-MS with detection at 280 nm. […]

A further data set relates to HeLa cells. In words: Cell viability assay (TACS MTT Cell Proliferation assay). The format is cell-based. As to conditions: different concentrations of peptide, 2 h at 37 °C, vs untreated control, means ± s.d. (n = 4), p > 0.05. How it is done:
5. Experimental Protocols for Biological Assays
Spectroscopic characterisation
Spectral properties were measured in a BioTek Cytation 3 spectrophotometer. Absorbance and emission spectra were determined in the range of 400–700 nm (every 1 nm) at the indicated concentrations. Environmental sensitivity was measured by comparing the emission in PBS or in presence of phosphatidylcholine: cholesterol (7:1) liposomes (3.75 mg mL-1 PC).
Fluorescence emission was determined on a 384-well plate using a BioTek Cytation 3 spectrophotometer as indicated (excitation at 520 nm, 530-700 nm emission range, every 1 […]
as §1
as §2, with “h.” for “h. Aliquots (25 µL) were taken, proteins were precipitated by microcentrifugation at 4°C, and supernatants were collected for HPLC-MS with detection at 280 nm.”
Cell viability of HeLa cells was determined using the TACS® MTT Cell Proliferation assay (Trevigen). […]

As to `CCCC[C@@H]1NC(=O)[C@H](Cc2c[nH]c3ccccc23)NC(=O)[C@H](CC(C)C)NC(=O)[C@H](Cc2ccccc2)NC(=O)[C@@H](CCCCN)NC(=O)[C@H](CCC(N)=O)NC(=O)[C@H](Cc2ccc(O)cc2)NC(=O)[C@H](C)NC(=O)[C@H](C)NC(=O)[C@H](CCC(=O)O)NC1=O` [compound 2, reference compound] (cyclo(AAYQ[dK]FLW[Nle]E)), in data set [1], the “chemical stability 2 h” value was 65% and the “chemical stability 24 h” value is listed as 50%.
As for `CCCC[C@@H]1NC(=O)[C@H](Cc2c(-c3cccc(C4=C5C(C)=CC(C)=[N+]5[B-](F)(F)n5c4ccc5-c4ccc(C)s4)c3)[nH]c3ccccc23)NC(=O)[C@H](CC(C)C)NC(=O)[C@H](Cc2ccccc2)NC(=O)[C@@H](CCCCN)NC(=O)[C@H](CCC(N)=O)NC(=O)[C@H](Cc2ccc(O)cc2)NC(=O)[C@H](C)NC(=O)[C@H](C)NC(=O)[C@H](CCC(=O)O)NC1=O` [compound 8] (cyclo(AAYQ[dK]FL[X1][Nle]E)), the fluorescence increase in hydrophobic medium (fluorogenic) was < 70 fold and 70 fold. For the same molecule, in data set [1], the “chemical stability 2 h” value is listed as greater than 95% and the “chemical stability 24 h” value is reported as 82%. Besides, the “Viability of HeLa cells” value with HeLa cells is “Non-significant differences”.
